As a reminder, the DC50 is the midpoint of the concentration-degradation curve. By Dmax is commonly meant the greatest extent of degradation seen. Read a high Dmax as a fuller loss of target.

For twelve compounds, DC50 and Dmax results are on record in US12180193B2, “Accelerating fibrosarcoma protein degrading compounds and associated methods of use” (Arvinas Operations, Inc., priority 2020, dated 2024).

SMILES strings stand for the structures.

Experiment [1] has as its target T1, BRAF G466V (Homo sapiens, UniProt P15056, G466V).
T1 construct: expressed in transfected cells
Kind of experiment: Cellular assay of target protein degradation, T-Rex 293 cells stably transfected with HA-BRAF G466V (HA immunofluorescence, high content imaging). The experiment is classed as cell-based. The settings on record: T-Rex 293 HA-BRAF G466V; for DC50: half maximal degradation, read-out: BRaf G466V DC50; for Dmax: maximum degradation observed. The procedure, abridged: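 Dose range spans 30 nM to 3 pM (0.1% DMSO) over 24 hours at 37° C, in cells induced with 0.75 ng/mL doxycycline. Fixed cells are probed with anti-HA antibody overnight at 4° C, then imaged; half-maximal degradation and maximum degradation are derived.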

Experiment [2] concerns the target T2, BRAF V600E (Homo sapiens, UniProt P15056, V600E).
T2 construct: expressed in transfected cells
The experiment in a line: Cellular assay of target protein degradation, T-Rex 293 cells stably transfected with HA-BRAF_V600E (HA immunofluorescence, high content imaging). It is filed as cell-based. The settings on record: T-Rex 293 HA-BRAF V600E; for DC50: half maximal degradation, read-out: BRaf V600E DC50; for Dmax: maximum degradation observed. The method in brief: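 Degradation of the HA-tagged construct is measured after 24 h treatment at 37 °C across 1 μM to 0.1 nM in 0.1% DMSO, in doxycycline-induced (1 ng/mL) cells. DC50 and Dmax come from HA fluorescence imaging.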

T2 sequence (P15056 whole entry V600E): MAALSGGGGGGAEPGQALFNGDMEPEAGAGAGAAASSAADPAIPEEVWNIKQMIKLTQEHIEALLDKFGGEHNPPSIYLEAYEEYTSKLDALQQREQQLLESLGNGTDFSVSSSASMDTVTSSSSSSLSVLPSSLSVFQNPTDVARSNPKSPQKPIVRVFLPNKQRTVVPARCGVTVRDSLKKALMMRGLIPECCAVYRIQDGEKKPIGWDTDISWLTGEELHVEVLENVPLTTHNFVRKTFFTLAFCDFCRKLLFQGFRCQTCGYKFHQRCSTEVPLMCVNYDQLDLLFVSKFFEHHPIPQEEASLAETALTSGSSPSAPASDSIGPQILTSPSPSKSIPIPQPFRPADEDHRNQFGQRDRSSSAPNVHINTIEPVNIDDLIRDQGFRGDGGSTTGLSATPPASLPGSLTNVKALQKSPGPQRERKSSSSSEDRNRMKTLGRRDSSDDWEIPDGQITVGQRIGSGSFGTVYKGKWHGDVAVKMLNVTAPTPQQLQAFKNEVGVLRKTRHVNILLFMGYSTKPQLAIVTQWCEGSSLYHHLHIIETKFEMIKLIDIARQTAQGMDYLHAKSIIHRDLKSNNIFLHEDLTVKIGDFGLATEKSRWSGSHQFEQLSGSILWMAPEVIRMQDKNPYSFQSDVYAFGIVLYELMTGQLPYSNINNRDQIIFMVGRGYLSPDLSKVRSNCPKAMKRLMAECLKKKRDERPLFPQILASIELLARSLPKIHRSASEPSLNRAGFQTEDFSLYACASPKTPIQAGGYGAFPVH
T1 sequence (P15056 whole entry G466V): as the sequence (P15056 whole entry V600E) above, with G466V, E600V counted along it

Take `O=C1CCC(NC(=O)N2CCCc3c(N4CCN(CC5CCN(c6ccc(-c7cnc8[nH]cc(C(=O)c9c(F)ccc(NS(=O)(=O)N%10CC[C@@H](F)C%10)c9F)c8c7)cc6)CC5)CC4)ccnc32)C(=O)N1` (stereo partly drawn) [Compound 370, 5-(4-{[1-(4-{3-[2,6-difluoro-3-({[(3R)-3-fluoropyrrolidin-1-yl]sulfonyl}amino)benzoyl]-1H-pyrrolo[2,3-b]pyridin-5-yl}phenyl)piperidin-4-yl]methyl}piperazin-1-yl)-N-(2,6-dioxopiperidin-3-yl)-1,2,3,4-tetrahydro-1,8-naphthyridine-1-carboxamide]: in experiment [1], the DC50 lay in the range of 1 to 10 nM and the Dmax was more than 70%. Further, in experiment [2], the DC50 fell in the range of 5 to 50 nM and the maximal degradation (Dmax) was 35 to 70%.
In the same order, the values of `O=C1CC[C@H](NC(=O)N2CCCc3c(N4CCC(CN5CCN(c6ccc(-c7cnc8[nH]cc(C(=O)c9c(F)ccc(NS(=O)(=O)N%10CC[C@@H](F)C%10)c9F)c8c7)cc6)CC5)CC4)ccnc32)C(=O)N1` [Compound 371, 5-(4-{[4-(4-{3-[2,6-difluoro-3-({[(3R)-3-fluoropyrrolidin-1-yl]sulfonyl}amino)benzoyl]-1H-pyrrolo[2,3-b]pyridin-5-yl}phenyl)piperazin-1-yl]methyl}piperidin-1-yl)-N-[(3S)-2,6-dioxopiperidin-3-yl]-1,2,3,4-tetrahydro-1,8-naphthyridine-1-carboxamide] are 1 to 10 nM, more than 70%, 50 to 500 nM and more than 70%.
In the case of `O=C1CC[C@@H](NC(=O)N2CCCc3c(N4CCC(CN5CCN(c6ccc(-c7cnc8[nH]cc(C(=O)c9c(F)ccc(NS(=O)(=O)N%10CC[C@@H](F)C%10)c9F)c8c7)cc6)CC5)CC4)ccnc32)C(=O)N1` [Compound 372, 5-(4-{[4-(4-{3-[2,6-difluoro-3-({[(3R)-3-fluoropyrrolidin-1-yl]sulfonyl}amino)benzoyl]-1H-pyrrolo[2,3-b]pyridin-5-yl}phenyl)piperazin-1-yl]methyl}piperidin-1-yl)-N-[(3R)-2,6-dioxopiperidin-3-yl]-1,2,3,4-tetrahydro-1,8-naphthyridine-1-carboxamide], the figures for the DC50 in experiment [1] and in experiment [2] were more than 30 nM and more than 500 nM, respectively.
As for `O=C1CC[C@H](NC(=O)c2ccc(N3CC4(CN(CCc5ccc(-c6cnc7[nH]cc(C(=O)c8c(F)ccc(NS(=O)(=O)N9CC[C@@H](F)C9)c8F)c7c6)cc5)C4)C3)cc2F)C(=O)N1` [Compound 373, 4-[6-(2-[4-[3-(2,6-difluoro-3-[[(3R)-3-fluoropyrrolidin-1-ylsulfonyl]amino]benzoyl)-1H-pyrrolo[2,3-b]pyridin-5-yl]phenyl]ethyl)-2,6-diazaspiro[3.3]heptan-2-yl]-N-[(3S)-2,6-dioxopiperidin-3-yl]-2-fluorobenzamide], in experiment [1], the DC50 fell in the range of 1 to 10 nM and the Dmax was more than 70%. In experiment [2], the 50% degradation concentration (DC50) fell in the range of 5 to 50 nM and the Dmax fell in the range of 35 to 70%.
In the same order, the values of `O=C1CCC(NC(=O)c2ccc(N3CC4(CN(CCc5ccc(-c6cnc7[nH]cc(C(=O)c8c(F)ccc(NS(=O)(=O)N9CC[C@@H](F)C9)c8F)c7c6)cc5)C4)C3)cc2F)C(=O)N1` (stereo partly drawn) [Compound 374, 4-{6-[2-(4-{3-[2,6-difluoro-3-({[(3R)-3-fluoropyrrolidin-1-yl]sulfonyl}amino)benzoyl]-1H-pyrrolo[2,3-b]pyridin-5-yl}phenyl)ethyl]-2,6-diazaspiro[3.3]heptan-2-yl}-N-(2,6-dioxopiperidin-3-yl)-2-fluorobenzamide] are less than 1 nM, 35 to 70%, 5 to 50 nM and 35 to 70%.
The corresponding values for `O=C1CC[C@H](NC(=O)c2ccc(C3CCN(CC4CCN(c5ncc(-c6cnc7[nH]cc(C(=O)c8c(F)ccc(NS(=O)(=O)N9CC[C@@H](F)C9)c8F)c7c6)cn5)CC4)CC3)cc2F)C(=O)N1` [Compound 375, 4-(1-{[1-(5-{3-[2,6-difluoro-3-({[(3R)-3-fluoropyrrolidin-1-yl]sulfonyl}amino)benzoyl]-1H-pyrrolo[2,3-b]pyridin-5-yl}pyrimidin-2-yl)piperidin-4-yl]methyl}piperidin-4-yl)-N-[(3S)-2,6-dioxopiperidin-3-yl]-2-fluorobenzamide] are 1 to 10 nM, 35 to 70%, 50 to 500 nM and 35 to 70%.
The corresponding values for `O=C1CCC(NC(=O)c2ccc(C3CCN(CC4CCN(c5ncc(-c6cnc7[nH]cc(C(=O)c8c(F)ccc(NS(=O)(=O)N9CC[C@@H](F)C9)c8F)c7c6)cn5)CC4)CC3)cc2F)C(=O)N1` (stereo partly drawn) [Compound 376, 4-(1-{[1-(5-{3-[2,6-difluoro-3-({[(3R)-3-fluoropyrrolidin-1-yl]sulfonyl}amino)benzoyl]-1H-pyrrolo[2,3-b]pyridin-5-yl}pyrimidin-2-yl)piperidin-4-yl]methyl}piperidin-4-yl)-N-(2,6-dioxopiperidin-3-yl)-2-fluorobenzamide] are 1 to 10 nM, 35 to 70%, 50 to 500 nM and 35 to 70%.
Regarding `O=C1CC[C@H](NC(=O)c2ccc(N3CCN(CCN4CCN(c5ccc(-c6cnc7[nH]cc(C(=O)c8c(F)ccc(NS(=O)(=O)N9CC[C@@H](F)C9)c8F)c7c6)cc5)CC4)CC3)cc2F)C(=O)N1` [Compound 377, 4-(4-{2-[4-(4-{3-[2,6-difluoro-3-({[(3R)-3-fluoropyrrolidin-1-yl]sulfonyl}amino)benzoyl]-1H-pyrrolo[2,3-b]pyridin-5-yl}phenyl)piperazin-1-yl]ethyl}piperazin-1-yl)-N-[(3S)-2,6-dioxopiperidin-3-yl]-2-fluorobenzamide], in experiment [1], the DC50 lay in the range of 1 to 10 nM and the Dmax is 35 to 70%. Moreover, in experiment [2], the DC50 lay in the range of 5 to 50 nM and the Dmax is 35 to 70%.
Take `O=C1CCC(NC(=O)c2ccc(N3CCN(CCN4CCN(c5ccc(-c6cnc7[nH]cc(C(=O)c8c(F)ccc(NS(=O)(=O)N9CC[C@@H](F)C9)c8F)c7c6)cc5)CC4)CC3)cc2F)C(=O)N1` (stereo partly drawn) [Compound 378, 4-(4-{2-[4-(4-{3-[2,6-difluoro-3-({[(3R)-3-fluoropyrrolidin-1-yl]sulfonyl}amino)benzoyl]-1H-pyrrolo[2,3-b]pyridin-5-yl}phenyl)piperazin-1-yl]ethyl}piperazin-1-yl)-N-(2,6-dioxopiperidin-3-yl)-2-fluorobenzamide]: in experiment [1], the DC50 was less than 1 nM and the Dmax is less than 35%. In experiment [2], the DC50 fell in the range of 5 to 50 nM and the maximal degradation (Dmax) is less than 35%.
As to `O=C1CC[C@H](NC(=O)N2CCCc3c(N4CC5(CN(CCc6ccc(-c7cnc8[nH]cc(C(=O)c9c(F)ccc(NS(=O)(=O)N%10CC[C@@H](F)C%10)c9F)c8c7)cc6)C5)C4)ccnc32)C(=O)N1` [Compound 379, 5-{6-[2-(4-{3-[2,6-difluoro-3-({[(3R)-3-fluoropyrrolidin-1-yl]sulfonyl}amino)benzoyl]-1H-pyrrolo[2,3-b]pyridin-5-yl}phenyl)ethyl]-2,6-diazaspiro[3.3]heptan-2-yl}-N-[(3S)-2,6-dioxopiperidin-3-yl]-1,2,3,4-tetrahydro-1,8-naphthyridine-1-carboxamide], in experiment [1], the DC50 lay in the range of 1 to 10 nM and the greatest degradation seen (Dmax) was in the range of 35 to 70%. For the same compound, in experiment [2], the DC50 was 50 to 500 nM and the Dmax lay in the range of 35 to 70%.
Regarding `O=C1CC[C@@H](NC(=O)N2CCCc3c(N4CC5(CN(CCc6ccc(-c7cnc8[nH]cc(C(=O)c9c(F)ccc(NS(=O)(=O)N%10CC[C@@H](F)C%10)c9F)c8c7)cc6)C5)C4)ccnc32)C(=O)N1` [Compound 380, 5-{6-[2-(4-{3-[2,6-difluoro-3-({[(3R)-3-fluoropyrrolidin-1-yl]sulfonyl}amino)benzoyl]-1H-pyrrolo[2,3-b]pyridin-5-yl}phenyl)ethyl]-2,6-diazaspiro[3.3]heptan-2-yl}-N-[(3R)-2,6-dioxopiperidin-3-yl]-1,2,3,4-tetrahydro-1,8-naphthyridine-1-carboxamide], in experiment [1], the DC50 is 1 to 10 nM and the Dmax was less than 35%. Further, the DC50 in experiment [2] was more than 500 nM.
Regarding `O=C1CCC(N2Cc3cc(N4CCC(N5CCC56CN(c5ccc(-c7cnc8[nH]cc(C(=O)c9c(F)ccc(NS(=O)(=O)N%10CC[C@@H](F)C%10)c9F)c8c7)cc5)C6)CC4)ccc3C2=O)C(=O)N1` (stereo partly drawn) [Example 9], in experiment [1], the DC50 was in the range of 1 to 10 nM and the Dmax fell in the range of 35 to 70%. In addition, in experiment [2], the half-maximal degradation concentration (DC50) lay within 50 to 500 nM and the Dmax was 35 to 70%.
